Laboratory results reported in US11498896B2 (The Broad Institute, Inc., priority 2014, dated 2022).
Where two headings read alike, the source gives them in different places.

Columns and labels:
human D2R/β-arrestin [1] = target: T1, human D2R/β-arrestin (Homo sapiens (Human), UniProt P14416); assay: Gi/cAMP agonist assay (Lance Ultra cAMP, forskolin); assay type: cell-based; conditions: CHO-K1 cells expressing human D2R/β-arrestin; agonist mode, 2.5 μM forskolin
Experimental: Eu-cAMP tracer solution (10 μl, PerkinElmer, 360 μl of Tracer in 17.64 ml kit buffer) and ULight-anti-cAMP solution (10 μl, 120 μL antibody in 17.88 ml kit buffer) was then added to each well.

human D2R/β-arrestin [2] = target: T1, human D2R/β-arrestin; assay: β-arrestin agonist assay (PathHunter); assay type: cell-based; conditions: CHO-K1 cells expressing human D2R/β-arrestin; agonist mode
Experimental: The detection reagent (9.6 μL, Buffer:Emerald II:Galactor-Star in a 19:5:1 ratio, i.e., 14.06 mL:3.7 mL:0.74 mL=18.5 mL) was then added to the agonist plates.

human D2R/β-arrestin [3] = target: T1, human D2R/β-arrestin; assay: cell-based; conditions: cAMP Antagonist, CHO-K1 cells expressing human D2R/β-arrestin; antagonist mode, 2.5 μM forskolin and 2.7 nM quinpirole
Experimental: (§1) Cells were prepared for assays by growing cultures for up to 2 weeks (from about 6-20 passages). A vial of frozen cells was thawed in a water bath held at 37° C. The cells were then transferred into a 50 ml tube with 10 ml growth media. The vial was rinsed with growth media and the contents transferred to the 50 ml tube. The 50 ml tube was centrifuged at 1200 rpm for 5 minutes at room temperature. […] When the cells reached about 90% confluence (approximately 3 days between passages), the cells were passaged and used for either the agonist or antagonist assays as described below.
(§2) The cells were prepared for Gi/cAMP assays as described above. The assays were performed using a PE Lance Ultra cAMP kit (TRF0263). The cells were grown on 225 mm dishes, then washed once with 1×PBS (Cellgro) before digestion with 2.5 ml 1× Detachment reagent (DRX 92-0009) for about 2 minutes. PBS (20 ml) was then added to the plate, and the cells were transferred to a 50 ml centrifuge tube, and centrifuged at room temperature using BD Dynac III, at 1200 rpm for 5 minutes. […] The plates were then incubated at room temperature for about 30 minutes before addition of Eu-cAMP tracer solution (10 μl, PerkinElmer) and then ULight-anti-cAMP solution (10 μl) to each well.

human D2R/β-arrestin [4] = target: T1, human D2R/β-arrestin; conditions: CHO-K1 cells expressing human D2R/β-arrestin, antagonist mode, quinpirole 130 nM; for IC50: read-out: β-arrestin Antagonist
Experimental: as §1
(§3) The cells were prepared for β-arrestin assays as described above. The assays were performed using a PathHunter® β-Arrestin Detecting Kit (DiscoveRX). The cells were grown on 225 mm dishes, then washed once with 1×PBS (Cellgro), followed by digestion with 2.5 ml 1× Detachment reagent (DRX 92-0009) for approximately 2 minutes.

D2 receptor = D2 receptor (Homo sapiens (Human), UniProt P14416); assay: D2 radioligand binding assay
human D2R/β-arrestin [5] = target: T1, human D2R/β-arrestin; conditions: read-out: cAMP Antagonist; CHO-K1 cells expressing human D2R/β-arrestin; antagonist mode, 2.5 μM forskolin and 2.7 nM quinpirole
Experimental: as §1, §2

human D2R/β-arrestin [6] = target: T1, human D2R/β-arrestin; assay: cell-based; conditions: β-arrestin Antagonist, CHO-K1 cells expressing human D2R/β-arrestin; antagonist mode, quinpirole 130 nM
Experimental: as §1, §3

Brain protein binding = assay type: in vitro ADME
[7] = Pharmacokinetic and brain distribution study in mice; assay type: in vivo; conditions: single intraperitoneal dose 30 mg/kg, male C57BL/6 mice; for half-life / AUC / Cmax: mouse, ip
Experimental: Pharmacokinetic Studies on Mice Brains
Twelve male C57BL/6 mice were weighed and administered intraperitoneally with a dose of test compound (Examples 90, 157, 125) solution formulation. The dosing volume administered for the intraperitoneal route was at 10 mL/kg. Blood samples (approximately […]) were collected from retro-orbital plexus of each mouse under light isoflurane anesthesia at 0.08, 0.5, 1, 2, 4, and 8 hr. Following the collection of blood, plasma was also harvested by centrifugation and stored at −70° C. until analysis. After collection of plasma, the animals were euthanized and brain samples were isolated at 0.08, 0.5, 1, 2, 4, and 8 hr. Tissue samples (brain) were homogenized using ice-cold phosphate buffer saline (pH 7.4) and homogenates were stored below −70° C. until analysis. Total homogenate volume was three times the tissue weight. Concentrations of test compound in mouse plasma and brain samples were determined by LC-MS/MS method.
Identical extraction procedures were used for the plasma/brain homogenate study samples and the spiked plasma calibration standards: A 25 μL sample of either study sample (plasma/brain) or spiked calibration standard was added to individual pre-labeled micro-centrifuge tubes. A volume of 100 μL of IS (antipyrine, 500 ng/mL) prepared in acetonitrile was then added to the micro-centrifuge tubes, except in a sample used as a negative control where only acetonitrile was added and vortexed for 5 minutes. Samples were centrifuged for 20 minutes at the speed of 4000 rpm at 4° C. Following centrifugation, 100 μL of the supernatant was sampled from each centrifuge tube and transferred into insert vials. These vials remained within the auto-sampler for the LC/MS/MS analysis. Standards used for calibration were prepared by spiking 10 μL of the test compound in 190 μL of control (used as a negative control) mouse plasma/brain homogenate.
The plasma and brain concentration-time data of test compounds was provided for data analysis. The plasma and brain concentration-time data was then used for the pharmacokinetic analysis. Non-Compartmental-Analysis module in Phoenix® WinNonlin® (Version 6.3) was used to assess the pharmacokinetic parameters. Peak plasma concentrations (Cmax) and time for the peak plasma concentrations (Tmax) were the observed values. The areas under the concentration time curve (AUClast and AUCinf) were calculated by linear trapezoidal rule. The terminal elimination rate constant, ke was determined by regression analysis of the linear terminal portion of the log plasma concentration-time curve.
Illustrative results are presented in FIG. 2, the pharmacokinetic parameters are as follow: […]

[8] = brain, read-out: Brain T1/2 (converted)
[9] = plasma, read-out: Plasma T1/2 (converted)

T1 sequence (P14416 whole entry): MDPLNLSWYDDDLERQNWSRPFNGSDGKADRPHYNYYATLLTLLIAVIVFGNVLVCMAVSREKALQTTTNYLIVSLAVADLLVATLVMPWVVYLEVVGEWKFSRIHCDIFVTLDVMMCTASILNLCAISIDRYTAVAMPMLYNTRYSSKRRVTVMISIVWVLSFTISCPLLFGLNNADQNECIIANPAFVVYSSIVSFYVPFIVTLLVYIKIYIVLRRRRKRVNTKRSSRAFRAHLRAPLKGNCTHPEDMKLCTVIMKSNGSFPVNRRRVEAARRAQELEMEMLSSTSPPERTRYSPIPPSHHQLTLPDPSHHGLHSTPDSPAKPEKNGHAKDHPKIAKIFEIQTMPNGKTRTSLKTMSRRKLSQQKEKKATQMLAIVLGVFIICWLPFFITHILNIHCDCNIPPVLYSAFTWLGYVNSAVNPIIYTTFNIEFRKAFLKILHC
D2 receptor, sequence (P14416 whole entry): as above

Row | SMILES | EC50 (human D2R/β-arrestin [1]) | EC50 (human D2R/β-arrestin [2]) | IC50 (human D2R/β-arrestin [3]) | IC50 (human D2R/β-arrestin [4]) | Ki (D2 receptor) | IC50 (human D2R/β-arrestin [5]) | IC50 (human D2R/β-arrestin [6]) | fraction unbound (Brain protein binding) | Brain AUC ([7]; brain) | Brain Cmax ([7]; brain) | half-life [7, 8] | AUC ([7]; plasma) | Cmax ([7]; plasma) | half-life [7, 9] | cAMP Agonist (human D2R/β-arrestin [1]) | β-arrestin Antagonist (human D2R/β-arrestin [4])
1 | CC1(Oc2ccc(Cl)cc2)CCN(CCOc2ccc(F)cc2C(F)(F)F)CC1 [Compound 157, 4-(4-chlorophenoxy)-1-(2-(4-fluoro-2-(trifluoromethyl)phenoxy)ethyl)-4-methylpiperidine] | 0.1 to 1 µM | > 30 µM | 0.1 to 1 µM |  | 0.1 to 1 µM |  | 0.1 to 1 µM | < 0.001 | 70.4 µM·h | 7.03 µM | 6 h | 14 µM·h | 2.47 µM | 6.2 h |  | 
2 | CC1(Oc2ccc(Cl)cc2)CCCN(CCOc2ccccc2F)C1 (stereo not drawn) [Example 98a] | > 30 µM | > 30 µM |  | < 0.1 µM | < 0.1 µM | < 0.1 µM |  |  |  |  |  |  |  |  |  | 
3 | O=C1CCc2ccc(OCCCCN3CCCN(c4cccc(Cl)c4Cl)CC3)nc2N1 [UNC9975, reference compound] |  |  |  |  |  |  |  |  |  |  |  |  |  |  | B or A | B or A

Second part, the compound after the results:

Row | EC50 (human D2R/β-arrestin [1]) | EC50 (human D2R/β-arrestin [2]) | IC50 (human D2R/β-arrestin [3]) | IC50 (human D2R/β-arrestin [4]) | Ki (D2 receptor) | IC50 (human D2R/β-arrestin [5]) | IC50 (human D2R/β-arrestin [6]) | fraction unbound (Brain protein binding) | Brain AUC ([7]; brain) | Brain Cmax ([7]; brain) | half-life [7, 8] | AUC ([7]; plasma) | Cmax ([7]; plasma) | half-life [7, 9] | cAMP Agonist (human D2R/β-arrestin [1]) | β-arrestin Antagonist (human D2R/β-arrestin [4]) | SMILES
4 | < 0.1 µM | > 30 µM | 0.1 to 1 µM | 1 to 10 µM | 0.1 to 1 µM |  |  |  |  |  |  |  |  |  |  |  | CC1(C(=O)Nc2ccccc2)CCN(CC2COc3ccccc3O2)CC1 (single isomer, unassigned) [Compound 204b, 1-((2,3-dihydrobenzo[b][1,4]dioxin-2-yl)methyl)-4-methyl-N-phenylpiperidine-4-carboxamide]
5 | 0.1 to 1 µM | > 30 µM |  | 1 to 10 µM | 1 to 10 µM | > 30 µM |  |  |  |  |  |  |  |  |  |  | CC1(Oc2ccc(Cl)cc2)CCN(CCOc2ccc3ncsc3c2)C1 (stereo not drawn) [Compound 18b]
6 | 0.1 to 1 µM | 10 to 30 µM | > 30 µM |  | 1 to 10 µM |  | > 30 µM | 0.002 | 222.3 µM·h | 37.9 µM | 7 h | 69.6 µM·h | 19.8 µM | 13.4 h |  |  | CC1(Oc2ccc(Cl)cc2)CCN(CCOc2ccc(C(F)(F)F)cc2)CC1 [Compound 125, 4-(4-Chlorophenoxy)-4-methyl-1-(2-(4-(trifluoromethyl)phenoxy)ethyl) piperidine]
7 | < 0.1 µM | 1 to 10 µM |  | > 30 µM | 10 to 30 µM | > 30 µM |  |  |  |  |  |  |  |  |  |  | CC1(Oc2ccncc2)CCN(CCOc2ccccc2)C1 (stereo not drawn) [Example 59b]
8 | < 0.1 µM | > 30 µM |  | 0.1 to 1 µM | 0.1 to 1 µM | > 30 µM |  |  |  |  |  |  |  |  |  |  | FC(F)(F)c1ccccc1OCCN1CCC2(CC1)CC2c1ccccc1 (stereo not drawn) [Example 102a]
